Columns and labels:
[1] = biological target: 5-HT2B receptor (Homo sapiens, UniProt P41595); test: Agonist activity at 5-HT2B receptor (unknown origin) expressed in HEK293 cells assessed as [3H]inositol phosphate accumulation at 10 uM after 2 hrs by scintillation counting relative to serotonin; type: cell-based; details: HEK293 cells expressing 5-HT2B receptor
[2] = biological target: T1, 5-hydroxytryptamine receptor 2C (Homo sapiens) (UniProt P28335); test: Agonist activity at unedited 5-HT2C receptor (unknown origin) expressed in HEK293 cells assessed as [3H]inositol phosphate accumulation at 10 uM after 2 hrs by scintillation counting relative to serotonin; type: functional, cell-based
T1 sequence (whole entry): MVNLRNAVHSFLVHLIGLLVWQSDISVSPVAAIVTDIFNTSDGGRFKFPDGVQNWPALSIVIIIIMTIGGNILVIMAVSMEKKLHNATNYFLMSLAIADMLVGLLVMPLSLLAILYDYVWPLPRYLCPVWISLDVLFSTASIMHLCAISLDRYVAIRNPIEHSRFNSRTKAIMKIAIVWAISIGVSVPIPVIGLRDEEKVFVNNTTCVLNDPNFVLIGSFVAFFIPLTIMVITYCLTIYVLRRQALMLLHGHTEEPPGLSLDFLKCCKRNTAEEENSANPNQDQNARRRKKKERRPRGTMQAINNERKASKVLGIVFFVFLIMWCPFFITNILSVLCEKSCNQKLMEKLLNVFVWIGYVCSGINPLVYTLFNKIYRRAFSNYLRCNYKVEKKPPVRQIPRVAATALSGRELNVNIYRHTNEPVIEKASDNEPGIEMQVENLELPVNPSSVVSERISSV

[3] = biological target: T2, 5-hydroxytryptamine receptor 2C (Homo sapiens, UniProt P28335); test: Agonist activity at unedited 5-HT2C receptor (unknown origin) expressed in HEK293 cells assessed as [3H]inositol phosphate accumulation after 2 hrs by scintillation counting; type: functional, cell-based
T2 sequence (P28335 whole entry): T1 sequence (whole entry)

[4] = biological target: T3, 5-hydroxytryptamine receptor 2B (Homo sapiens, UniProt P41595); test: Agonist activity at 5-HT2B receptor (unknown origin) expressed in HEK293 cells assessed as [3H]inositol phosphate accumulation after 2 hrs by scintillation counting; type: cell-based
[5] = biological target: 5-HT2A receptor (Homo sapiens, UniProt P28223); test: Agonist activity at 5-HT2A receptor (unknown origin) expressed in HEK293 cells assessed as [3H]inositol phosphate accumulation at 10 uM after 2 hrs by scintillation counting relative to serotonin; type: cell-based; details: HEK293 cells expressing 5-HT2A receptor
[6] = biological target: T4, 5-hydroxytryptamine receptor 2A (Homo sapiens, UniProt P28223); test: Displacement of [125I]DOI from recombinant human 5-HT2A receptor expressed in HEK293 cell membranes after 1 hr by scintillation counting
[7] = biological target: T3, 5-hydroxytryptamine receptor 2B; test: Displacement of [125I]DOI from recombinant human 5-HT2B receptor expressed in HEK293 cell membranes after 1 hr by scintillation counting
[8] = biological target: T2, 5-hydroxytryptamine receptor 2C; test: Displacement of [125I]DOI from recombinant human 5-HT2C receptor expressed in HEK293 cell membranes after 1 hr by scintillation counting
[9] = biological target: T4, 5-hydroxytryptamine receptor 2A; test: Agonist activity at 5-HT2A receptor (unknown origin) expressed in HEK293 cells assessed as [3H]inositol phosphate accumulation after 2 hrs by scintillation counting; type: cell-based
[10] = test system: Rattus norvegicus; test: Antiobesity activity in Sprague-Dawley rat assessed as reduction in food intake at 5 mg/kg, po administered via oral gavage 30 mins prior to food presentation measured 60 mins post drug administration; type: functional; set-up: scale not given: the % may be the effect or the level left
[11] = test system: Rattus norvegicus; test: Antiobesity activity in Sprague-Dawley rat assessed as reduction in food intake at 1 mg/kg, po administered via oral gavage 30 mins prior to food presentation measured 60 mins post drug administration; type: functional; set-up: scale not given: the % may be the effect or the level left
[12] = test system: Rattus norvegicus; test: Antiobesity activity in Sprague-Dawley rat assessed as reduction in food intake at 10 mg/kg, po administered via oral gavage 30 mins prior to food presentation measured 60 mins post drug administration; type: functional; set-up: scale not given: the % may be the effect or the level left
[13] = test system: Rattus norvegicus; test: Antiobesity activity in Sprague-Dawley rat assessed as reduction in food intake at 3 mg/kg, po administered via oral gavage 30 mins prior to food presentation measured 60 mins post drug administration; type: functional; set-up: scale not given: the % may be the effect or the level left

T3 sequence (P41595 whole entry): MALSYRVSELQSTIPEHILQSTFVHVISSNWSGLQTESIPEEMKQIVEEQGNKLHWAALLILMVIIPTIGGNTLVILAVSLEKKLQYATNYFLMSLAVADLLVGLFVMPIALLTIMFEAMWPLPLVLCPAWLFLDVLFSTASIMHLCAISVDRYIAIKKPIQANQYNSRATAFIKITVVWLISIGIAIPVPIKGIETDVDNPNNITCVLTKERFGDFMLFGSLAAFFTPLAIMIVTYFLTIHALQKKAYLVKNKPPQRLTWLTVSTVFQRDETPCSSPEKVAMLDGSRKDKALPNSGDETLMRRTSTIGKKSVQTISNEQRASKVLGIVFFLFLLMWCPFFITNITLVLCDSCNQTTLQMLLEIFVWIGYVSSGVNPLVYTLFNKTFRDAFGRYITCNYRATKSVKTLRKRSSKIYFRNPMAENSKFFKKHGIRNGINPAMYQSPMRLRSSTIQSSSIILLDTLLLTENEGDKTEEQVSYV
Sequence of 5-HT2B receptor (P41595 whole entry): as above
T4 sequence (P28223 whole entry): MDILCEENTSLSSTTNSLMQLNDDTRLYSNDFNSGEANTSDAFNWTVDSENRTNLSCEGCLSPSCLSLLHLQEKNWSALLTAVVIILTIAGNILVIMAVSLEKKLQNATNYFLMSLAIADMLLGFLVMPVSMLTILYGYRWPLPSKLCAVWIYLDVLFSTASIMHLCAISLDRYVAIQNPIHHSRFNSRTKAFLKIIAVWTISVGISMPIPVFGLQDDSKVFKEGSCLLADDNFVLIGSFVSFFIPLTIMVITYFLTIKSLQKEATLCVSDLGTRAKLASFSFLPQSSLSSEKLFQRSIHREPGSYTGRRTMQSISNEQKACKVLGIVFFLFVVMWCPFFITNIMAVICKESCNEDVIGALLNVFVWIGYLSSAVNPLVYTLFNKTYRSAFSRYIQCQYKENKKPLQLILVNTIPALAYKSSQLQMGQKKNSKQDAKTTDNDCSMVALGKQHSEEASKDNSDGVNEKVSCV
Sequence of 5-HT2A receptor (P28223 whole entry): as above

| SMILES | Emax at 2 h, 10 µM [1] [%] | Emax [2] [%] | EC50 ([3]; read-out: pEC50 (converted)) [nM] | EC50 [4] [nM] | further results |
| --- | --- | --- | --- | --- | --- |
| COc1cc2c(cc1Cl)CC[C@@H]1CNCCCN21 | 84 | 85 | 3.98 | 63.1 | – |
| COc1cccc2c1N1CCCNC[C@H]1CC2 | 55 | 17 | 31.6 | 100 | – |
| c1ccc2c(c1)CC[C@@H]1CNCCN21 | 28 | 97 | 2.51 | 63.1 | – |
| Clc1ccc2c(c1)CCC1CCNCCCN21 (stereo unspecified) | 71 | 83 | 200 | 631 | – |
| c1ccc(Oc2cccc3c2CCC2CNCCN32)cc1 (stereo unspecified) | 94 | 112 | 100 | 6310 | – |
| COc1ccc2c(c1)CC[C@@H]1CNCCCN21 | 76 | 80 | 631 | 1260 | – |
| c1csc(Cc2cccc3c2CCC2CNCCN32)c1 (stereo unspecified) | 24 | 106 | 0.794 | 398 | Emax at 2 h, 10 µM [5]: 94%; Ki [6]: 25.1 nM; Ki [7]: 25.1 nM; Ki [8]: 0.316 nM; EC50 [9]: 79.4 nM |
| Fc1ccc2c(c1)CC[C@@H]1CNCCCN21 | 59 | 94 | 25.1 | 631 | – |
| c1cc(C2CCC2)c2c(c1)N1CCNCC1CC2 (stereo unspecified) | 112 | 110 | 3.16 | 39.8 | – |
| c1ccc2c(c1)CC[C@@H]1CCNCCCN21 | 53 | 86 | 63.1 | 501 | – |
| CC1(C)CC2CNCCN2c2ccccc21 (stereo unspecified) | – | 84 | 1260 | > 10000 | – |
| Cc1cccc2c1CCC1CNCCN21 (stereo unspecified) | 65 | 108 | 2 | 31.6 | – |
| COc1cc2c(cc1Cc1ccccc1)CC[C@@H]1CNCCCN21 | – | – | > 1000 | > 1000 | – |
| CCCc1ccc2c(c1)N1CCNCC1CC2 (stereo unspecified) | 19 | 87 | 63.1 | 200 | – |
| COc1ccc2c(c1)N1CCCNC[C@H]1CC2 | 37 | 95 | 79.4 | 631 | – |
| c1cc(Cc2ccc3c(c2)OCO3)c2c(c1)N1CCNCC1CC2 (stereo unspecified) | 26 | 100 | 6.31 | 3980 | Emax at 2 h, 10 µM [5]: 64%; Ki [6]: 1.58 nM; Ki [7]: 126 nM; Ki [8]: 0.794 nM; EC50 [9]: 200 nM |
| Fc1ccc2c(c1)N1CCNCC1CC2 (stereo unspecified) | 38 | 100 | 0.794 | 31.6 | – |
| CC1(C)Cc2ccccc2N2CCNCC21 (stereo unspecified) | – | – | > 1000 | > 1000 | – |
| COc1ccc2c(c1)CCC1CNCCN21 (stereo unspecified) | 57 | 101 | 251 | 794 | – |
| Cc1cccc2c1N1CCNCC1CC2 (stereo unspecified) | 10 | 86 | 63.1 | 50.1 | – |
| CC1(C)Cc2cccc(Cl)c2N2CCNCC21 (stereo unspecified) | 84 | – | > 10000 | 100 | Ki [6]: 2000 nM; Ki [7]: 6.31 nM; Ki [8]: 794 nM; EC50 [9]: > 10000 nM |

| SMILES | Emax at 2 h, 10 µM [1] [%] | Emax [2] [%] | EC50 ([3]; read-out: pEC50 (converted)) [nM] | EC50 [4] [nM] | further results |
| --- | --- | --- | --- | --- | --- |
| c1ccc(Cc2cccc3c2CCC2CNCCN32)cc1 (stereo unspecified) | 20 | 104 | 1.58 | 2510 | Emax at 2 h, 10 µM [5]: 85%; Ki [6]: 1.58 nM; Ki [7]: 39.8 nM; Ki [8]: 0.631 nM; EC50 [9]: 126 nM |
| Clc1cccc(N2CCNCC2)c1 [CHLOROPHENYLPIPERAZINE] | 22 | 90 | – | – | Emax at 2 h, 10 µM [5]: 12% |
| Fc1ccc2c(c1Cc1ccccc1)CC[C@@H]1CNCCCN21 | 71 | 108 | 20 | 7940 | – |
| Fc1ccc2c(c1Cc1ccccc1)CCC1CNCCN21 (stereo unspecified) | 32 | 102 | 1 | 631 | Emax at 2 h, 10 µM [5]: 114%; Ki [6]: 0.631 nM; Ki [7]: 12.6 nM; Ki [8]: 0.398 nM; EC50 [9]: 100 nM |
| COc1ccc2c(c1Cl)N1CCCNC[C@H]1CC2 | 7 | 72 | 158 | 7.94 | – |
| CCSc1cccc2c1CCC1CNCCN21 (stereo unspecified) | 46 | 101 | 0.316 | 79.4 | – |
| c1cc(CC2CCC2)c2c(c1)N1CCCNCC1CC2 (stereo unspecified) | – | 116 | 126 | > 1000 | – |
| c1cc(OC2CCC2)c2c(c1)N1CCNCC1CC2 (stereo unspecified) | 9 | 98 | 20 | 794 | – |
| COCc1cccc2c1CCC1CNCCN21 (stereo unspecified) | 77 | 113 | 20 | 1260 | – |
| Clc1cccc2c1N1CCCNCCC1CC2 (stereo unspecified) | 20 | 85 | 25.1 | 100 | – |
| c1ccc2c(c1)CC[C@H]1CCNCCCN21 | – | – | > 10000 | > 10000 | – |
| Fc1ccc2c(c1)CCC1CNCCN21 (stereo unspecified) | 44 | 96 | 3.16 | 126 | – |
| CCCc1ccc2c(c1)CCC1CNCCN21 (stereo unspecified) | 9 | 100 | 20 | 631 | – |
| c1cc(CC2CCC2)c2c(c1)N1CCNCC1CC2 (stereo unspecified) | 31 | 106 | 3.16 | 2000 | Emax at 2 h, 10 µM [5]: 135%; Ki [6]: 7.94 nM; Activity [10]: 63%; Activity [11]: 27%; Activity [12]: 99%; Ki [7]: 63.1 nM; Ki [8]: 0.631 nM; EC50 [9]: 2000 nM |
| c1ccc(-c2cccc3c2CCC2CNCCN32)cc1 (stereo unspecified) | 72 | 97 | 126 | 2510 | – |
| CCCc1cccc2c1CCC1CNCCN21 (stereo unspecified) | 80 | 101 | 0.2 | 200 | Emax at 2 h, 10 µM [5]: 104%; Ki [6]: 6.31 nM; Activity [11]: 66%; Ki [7]: 25.1 nM; Ki [8]: 0.398 nM; EC50 [9]: 501 nM; Activity [13]: 99% |
| COc1cccc2c1CC[C@@H]1CNCCCN21 | 74 | 92 | 1000 | 398 | – |
| c1ccc2c(c1)CCC1CCNCCCN21 (stereo unspecified) | 60 | 99 | – | 1000 | EC50 ([3]; read-out: EC50): 130 nM |
| COc1cc2c(cc1Cl)N1CCCNC[C@H]1CC2 | 23 | 91 | 39.8 | 158 | – |
| COc1cc2c(c(Cl)c1Cl)N1CCCNC[C@H]1CC2 | < 5 | 80 | 10 | – | – |
| Fc1ccc2c(c1Cl)N1CCNCC1CC2 (stereo unspecified) | 12 | 94 | 6.31 | 2 | – |

Reference: ChEMBL document CHEMBL3871286, “Tetrahydroquinoline-based tricyclic amines as potent and selective agonists of the 5-HT2C receptor” (Bioorg Med Chem Lett, 2016)
